Experimental data as given in ChEMBL document CHEMBL4043203, “Synthesis and biological evaluations of new nitric oxide-anti-inflammatory drug hybrids” (Bioorg Med Chem Lett, 2017).
Values belong to the molecule of their own block, whether it stands above or below them.

Columns and labels:
Rattus norvegicus [1] = test: Antiinflammatory activity in po dosed Wistar albino rat assessed as inhibition of carrageenan-induced left hind paw edema pretreated for 1 hr followed by carrageenan addition measured after 2 hrs; format: functional; conditions: Wister
[2] = target: T1, Prostaglandin G/H synthase 2 (Homo sapiens, UniProt P35354); test: Inhibition of recombinant human COX2 using arachidonic acid as substrate by colorimetric enzyme immune assay
T1 sequence (P35354 whole entry): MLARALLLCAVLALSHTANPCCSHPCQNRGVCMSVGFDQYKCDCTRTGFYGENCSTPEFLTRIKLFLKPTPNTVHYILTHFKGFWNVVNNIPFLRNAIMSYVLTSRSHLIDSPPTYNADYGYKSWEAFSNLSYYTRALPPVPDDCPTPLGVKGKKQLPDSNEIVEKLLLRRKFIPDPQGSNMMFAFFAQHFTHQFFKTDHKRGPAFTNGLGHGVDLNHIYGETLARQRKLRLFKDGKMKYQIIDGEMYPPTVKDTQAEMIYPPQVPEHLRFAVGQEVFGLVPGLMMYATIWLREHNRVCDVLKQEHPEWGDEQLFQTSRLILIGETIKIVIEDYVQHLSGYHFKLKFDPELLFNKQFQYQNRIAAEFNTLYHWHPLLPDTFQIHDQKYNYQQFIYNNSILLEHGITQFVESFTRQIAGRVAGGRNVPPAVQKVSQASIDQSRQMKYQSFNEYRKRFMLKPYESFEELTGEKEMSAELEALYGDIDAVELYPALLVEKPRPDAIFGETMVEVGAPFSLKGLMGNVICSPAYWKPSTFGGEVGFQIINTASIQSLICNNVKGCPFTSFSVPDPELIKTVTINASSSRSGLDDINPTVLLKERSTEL

[3] = Selectivity index, ratio of IC50 for ovine COX1 to IC50 for recombinant human COX2
Rattus norvegicus [4] = test: Ulcerogenic activity in Wistar albino rat assessed as ulcer index at 50 mg/kg, po treated for 3 successive days measured at 2 hrs post last dose; format: toxicity, organism-based, Wister; conditions: in vivo
Rattus norvegicus [5] = test: Antiinflammatory activity in Wistar albino rat assessed as inhibition of carrageenan-induced left hind paw edema at 50 mg/kg, po pretreated for 1 hr followed by carrageenan addition measured after 2 hrs relative to control; format: functional; conditions: Wister
[6] = target: T2, Prostaglandin G/H synthase 1 (Ovis aries, UniProt P05979); test: Inhibition of ovine COX1 using arachidonic acid as substrate by colorimetric enzyme immune assay
T2 sequence (P05979 whole entry): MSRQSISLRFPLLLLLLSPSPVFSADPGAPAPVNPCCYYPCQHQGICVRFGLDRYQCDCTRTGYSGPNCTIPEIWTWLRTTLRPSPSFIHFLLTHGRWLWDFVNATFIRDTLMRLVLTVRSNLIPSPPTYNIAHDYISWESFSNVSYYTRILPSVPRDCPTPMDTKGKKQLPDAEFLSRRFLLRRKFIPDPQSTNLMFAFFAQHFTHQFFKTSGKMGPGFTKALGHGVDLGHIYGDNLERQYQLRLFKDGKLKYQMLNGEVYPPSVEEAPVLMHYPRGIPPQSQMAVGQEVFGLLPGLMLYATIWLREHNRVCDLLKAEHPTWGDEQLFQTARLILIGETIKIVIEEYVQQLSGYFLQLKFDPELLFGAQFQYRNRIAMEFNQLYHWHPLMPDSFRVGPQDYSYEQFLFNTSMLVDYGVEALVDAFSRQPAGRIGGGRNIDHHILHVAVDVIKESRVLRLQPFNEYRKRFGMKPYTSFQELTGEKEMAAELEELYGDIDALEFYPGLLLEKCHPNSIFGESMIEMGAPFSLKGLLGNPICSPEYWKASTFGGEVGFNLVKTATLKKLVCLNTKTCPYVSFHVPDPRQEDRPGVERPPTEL

Rattus norvegicus [7] = test: Ulcerogenic activity in Wistar albino rat assessed as relative ulcerogenicity at 50 mg/kg, po treated for 3 successive days measured at 2 hrs post last dose relative to celecoxib; format: toxicity, organism-based, Wister; conditions: in vivo
Rattus norvegicus [8] = test: Antiinflammatory activity in Wistar albino rat assessed as serum nitric oxide level at 50 mg/kg, po treated for 3 successive days measured at 2 hrs post last dose by Griess reagent based colorimetric assay (reference value: 147.90 +/- 31.76 micromol/L); format: functional, Wister
Rattus norvegicus [9] = organism: Rattus norvegicus; test: Ulcerogenic activity in Wistar albino rat assessed as minimum vasocapillary dilation in stomach after 48 hrs by hematoxylin and eosin staining based microscopic analysis; format: toxicity, Wister; conditions: in vivo
Rattus norvegicus [10] = organism: Rattus norvegicus; test: Ulcerogenic activity in Wistar albino rat assessed as loss of mucous in stomach after 48 hrs by hematoxylin and eosin staining based microscopic analysis; format: toxicity, Wister; conditions: in vivo
Rattus norvegicus [11] = organism: Rattus norvegicus; test: Ulcerogenic activity in Wistar albino rat assessed as lesion in stomach after 48 hrs by hematoxylin and eosin staining based microscopic analysis; format: toxicity, Wister; conditions: in vivo
Rattus norvegicus [12] = organism: Rattus norvegicus; test: Ulcerogenic activity in Wistar albino rat assessed as abdominal perforation in stomach after 48 hrs by hematoxylin and eosin staining based microscopic analysis; format: toxicity, Wister; conditions: in vivo

Compound: Cc1c(-c2nc3ccccn3c2N=O)cnn1-c1ccccc1
ED50 (Rattus norvegicus [1]): 35 mg/kg
IC50 [2]: 1750 nM
Ratio IC50 [3]: 5.25
UI (Rattus norvegicus [4]): 2
inhibition in vivo at 50 mg/kg (Rattus norvegicus [5]): 65%
IC50 [6]: 9.2 µM
fold change (FC) (Rattus norvegicus [7]): 6.06
Activity (Rattus norvegicus [8]): 402.6 µmol/L

Compound: Cc1c(C(=O)/C(Cl)=N/O)cnn1-c1ccccc1
ED50 (Rattus norvegicus [1]): 50 mg/kg
IC50 [2]: 2330 nM
Ratio IC50 [3]: 4.2
Activity (Rattus norvegicus [9]): Non-Toxic
Activity (Rattus norvegicus [10]): Non-Toxic
UI (Rattus norvegicus [4]): 5
inhibition in vivo at 50 mg/kg (Rattus norvegicus [5]): 50%
IC50 [6]: 9.8 µM
fold change (FC) (Rattus norvegicus [7]): 15.15
Activity (Rattus norvegicus [8]): 315.5 µmol/L

Compound: Cc1c(-c2nc3ccccc3nc2N=O)cnn1-c1ccccc1
ED50 (Rattus norvegicus [1]): 40 mg/kg
IC50 [2]: 6600 nM
Ratio IC50 [3]: 1.39
UI (Rattus norvegicus [4]): 3
inhibition in vivo at 50 mg/kg (Rattus norvegicus [5]): 59%
IC50 [6]: 9.2 µM
fold change (FC) (Rattus norvegicus [7]): 9.09
Activity (Rattus norvegicus [8]): 140.1 µmol/L

Compound: Cc1c(C2=C(N=O)Nc3ccccc3N2)cnn1-c1ccccc1
ED50 (Rattus norvegicus [1]): 40 mg/kg
IC50 [2]: 1610 nM
Ratio IC50 [3]: 5.77
UI (Rattus norvegicus [4]): 2.33
inhibition in vivo at 50 mg/kg (Rattus norvegicus [5]): 57%
IC50 [6]: 9.22 µM
fold change (FC) (Rattus norvegicus [7]): 7.06
Activity (Rattus norvegicus [8]): 370.1 µmol/L

Compound: Cc1c(-c2nnc(-c3cnn(-c4ccccc4)c3C)c3nocc23)cnn1-c1ccccc1
Activity (Rattus norvegicus [11]): Non-Toxic
IC50 [2]: 6880 nM
Ratio IC50 [3]: 1.46
Activity (Rattus norvegicus [9]): Non-Toxic
UI (Rattus norvegicus [4]): 1.33
IC50 [6]: 10.1 µM
fold change (FC) (Rattus norvegicus [7]): 4.03
Activity (Rattus norvegicus [8]): 318.8 µmol/L

Compound: Cc1c(C2=C(N=O)Oc3ccccc3N2)cnn1-c1ccccc1
ED50 (Rattus norvegicus [1]): 45 mg/kg
IC50 [2]: 4200 nM
Ratio IC50 [3]: 2.04
UI (Rattus norvegicus [4]): 2
inhibition in vivo at 50 mg/kg (Rattus norvegicus [5]): 56%
IC50 [6]: 8.6 µM
fold change (FC) (Rattus norvegicus [7]): 6.06
Activity (Rattus norvegicus [8]): 335.3 µmol/L

Compound: Cc1c(C2=C(N=O)Sc3ccccc3N2)cnn1-c1ccccc1
ED50 (Rattus norvegicus [1]): 45 mg/kg
IC50 [2]: 1830 nM
Ratio IC50 [3]: 4.21
UI (Rattus norvegicus [4]): 0.33
inhibition in vivo at 50 mg/kg (Rattus norvegicus [5]): 56%
IC50 [6]: 7.72 µM
fold change (FC) (Rattus norvegicus [7]): 1
Activity (Rattus norvegicus [8]): 348.3 µmol/L

Compound: Cc1ccc(-c2cc(C(F)(F)F)nn2-c2ccc(S(N)(=O)=O)cc2)cc1 [CELECOXIB]
Activity (Rattus norvegicus [11]): Non-Toxic
ED50 (Rattus norvegicus [1]): 35 mg/kg
Activity (Rattus norvegicus [9]): Non-Toxic
UI (Rattus norvegicus [4]): 0.33
inhibition in vivo at 50 mg/kg (Rattus norvegicus [5]): 65%

Compound: COc1ccc2c(c1)c(CC(=O)O)c(C)n2C(=O)c1ccc(Cl)cc1 [INDOMETHACIN]
Activity (Rattus norvegicus [12]): Toxic
Activity (Rattus norvegicus [10]): Toxic

Compound: Cc1c(C(=O)c2conc2C(=O)c2cnn(-c3ccccc3)c2C)cnn1-c1ccccc1
IC50 [2]: 4500 nM
Ratio IC50 [3]: 2.02
UI (Rattus norvegicus [4]): 0.33
IC50 [6]: 9.11 µM
fold change (FC) (Rattus norvegicus [7]): 1
Activity (Rattus norvegicus [8]): 286.2 µmol/L

Further lines, with some results ahead:

IC50 [2]: 780 nM
Ratio IC50 [3]: 7.84
IC50 [6]: 5.88 µM
Compound: Cc1c(-c2nnc(-c3ccccc3)c3conc23)cnn1-c1ccccc1
ED50 (Rattus norvegicus [1]): 50 mg/kg
UI (Rattus norvegicus [4]): 1.76
inhibition in vivo at 50 mg/kg (Rattus norvegicus [5]): 50%
fold change (FC) (Rattus norvegicus [7]): 5.06
Activity (Rattus norvegicus [8]): 314.4 µmol/L

IC50 [2]: 1490 nM
Ratio IC50 [3]: 7.44
IC50 [6]: 11.1 µM
Compound: Cc1c(C(=O)c2nocc2C(=O)c2ccccc2)cnn1-c1ccccc1
ED50 (Rattus norvegicus [1]): 61 mg/kg
UI (Rattus norvegicus [4]): 0.33
inhibition in vivo at 50 mg/kg (Rattus norvegicus [5]): 41%
fold change (FC) (Rattus norvegicus [7]): 1
Activity (Rattus norvegicus [8]): 372 µmol/L

IC50 [2]: 1280 nM
Ratio IC50 [3]: 7.94
IC50 [6]: 10.2 µM
Compound: Cc1ccc(-c2nnc(-c3cnn(-c4ccccc4)c3C)c3nocc23)cc1
ED50 (Rattus norvegicus [1]): 46 mg/kg
UI (Rattus norvegicus [4]): 0.33
inhibition in vivo at 50 mg/kg (Rattus norvegicus [5]): 54%
fold change (FC) (Rattus norvegicus [7]): 1
Activity (Rattus norvegicus [8]): 273.1 µmol/L

IC50 [2]: 1220 nM
Ratio IC50 [3]: 4.59
IC50 [6]: 5.6 µM
Compound: Cc1c(C2=C(N=O)Oc3cccnc3N2)cnn1-c1ccccc1
ED50 (Rattus norvegicus [1]): 35 mg/kg
UI (Rattus norvegicus [4]): 0.33
inhibition in vivo at 50 mg/kg (Rattus norvegicus [5]): 64%
fold change (FC) (Rattus norvegicus [7]): 1
Activity (Rattus norvegicus [8]): 415.3 µmol/L

IC50 [2]: 1550 nM
Ratio IC50 [3]: 4.38
IC50 [6]: 6.8 µM
Compound: Cc1c(-c2c(N=O)nc3ncccn23)cnn1-c1ccccc1
Activity (Rattus norvegicus [11]): Non-Toxic
ED50 (Rattus norvegicus [1]): 38 mg/kg
Activity (Rattus norvegicus [9]): Non-Toxic
UI (Rattus norvegicus [4]): 0.33
inhibition in vivo at 50 mg/kg (Rattus norvegicus [5]): 62%
fold change (FC) (Rattus norvegicus [7]): 1
Activity (Rattus norvegicus [8]): 386.3 µmol/L

IC50 [2]: 1120 nM
Ratio IC50 [3]: 4.03
IC50 [6]: 4.52 µM
Compound: Cc1ccc(C(=O)c2conc2C(=O)c2cnn(-c3ccccc3)c2C)cc1
ED50 (Rattus norvegicus [1]): 56 mg/kg
UI (Rattus norvegicus [4]): 1.33
inhibition in vivo at 50 mg/kg (Rattus norvegicus [5]): 45%
fold change (FC) (Rattus norvegicus [7]): 4.03
Activity (Rattus norvegicus [8]): 346.5 µmol/L
